Laboratory results published in patent US20200368234A1, “PHOTORECEPTOR GENE MODULATOR PHOTOREGULIN 3 FOR TREATMENT OF RETINAL DISEASE” (University of Washington, priority 2017, published 2020).
“Also recorded” adds a separate entry of the source.

Key:
Nr2e3 = molecular target: T1, Nr2e3 (Homo sapiens, UniProt Q9Y5X4); assay: Isothermal titration calorimetry (ITC) of PR3 binding to Nr2e3; conditions: one site model, estimated
T1 construct: Nr2e3 protein (aa 90-410) was expressed; His8 (N, cleaved yes); MBP (N, cleaved yes); host or cells: E. coli BL21 (DE3)
T1 sequence (Q9Y5X4 90-410): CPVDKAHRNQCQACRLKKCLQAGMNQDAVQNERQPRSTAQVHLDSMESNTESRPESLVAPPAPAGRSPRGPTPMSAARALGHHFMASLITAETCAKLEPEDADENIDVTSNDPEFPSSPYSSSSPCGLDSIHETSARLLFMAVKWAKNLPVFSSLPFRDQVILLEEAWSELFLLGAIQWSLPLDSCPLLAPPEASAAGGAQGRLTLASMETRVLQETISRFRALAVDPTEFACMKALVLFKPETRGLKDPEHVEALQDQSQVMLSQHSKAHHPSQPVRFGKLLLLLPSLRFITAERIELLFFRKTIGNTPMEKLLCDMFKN
Procedure: FIG. 1F illustrates an isothermal titration calorimetric (ITC) study of PR3 binding to Nr2e3. Nr2e3 protein was expressed as a fusion protein from the expression vector pVP16. The fusion protein was incubated with TEV overnight at 4° C. and then the His8-MBP tags were separated from Nr2e3 by ion exchange chromatography. For isothermal titration calorimetry, […] was injected into […] in a MicroCal ITC-200 (Malvern).
To confirm a direct Nr2e3-PR3 interaction, isothermal titration calorimetry (ITC) was used.
Nr2e3 protein (aa 90-410) was expressed as a His8-MBP-TEV fusion protein from the expression vector pVP16 (DNASU Plasmid ID: HsCD00084154). E. coli BL21 (DE3) cells were grown to an OD600 of 1, and then induced with 0.2 mM IPTG at 16° C. overnight. Cells were harvested, resuspended in extract buffer (20 mM Tris pH 8, 200 mM NaCl, 10% glycerol, 5 mM 2-mercaptoethanol, and saturated PMSF diluted 1:1,000), and then lysed by sonication on ice. Lysates were centrifuged at 4° C. and the supernatant was loaded onto an equilibrated column containing 5 mL of Ni-NTA agarose (Qiagen). […] For isothermal titration calorimetry, 100 μM PR3 was injected into 20 μM Nr2e3 in 10 mM sodium phosphate buffer pH 8 with 50 mM NaCl and 0.5% DMSO in a MicroCal ITC-200 (Malvern) and the data was analyzed with Origin 7.0 software.

Rhodopsin = Rhodopsin protein expression (immunofluorescence assay) in dissociated retinal cell cultures; assay type: cell-based; conditions: P5 mouse dissociated retinal cultures, 2 days treatment, vs DMSO and PR1
Description: In order to identify compounds that may target Nr2e3 a cheminformatic strategy was used to screen hit compounds previously identified to interact with recombinant Nr2e3 in transfected CHO-S cells in a luciferase-based assay (PubChem Assay IDs: 602229, 624378, 624394, and 651849). As a secondary screen for initial hits, dissociated primary retinal cell cultures were used and assayed Rhodopsin, because it is a well-defined target of Nr2e3 signaling and is expressed at high levels exclusively in rod photoreceptors. Retina were dissociated from postnatal day 5 (P5) mice and cultured them in media containing the small molecules. After treatment for 2 days, the cells were collected for qPCR analysis and quantified Rhodopsin expression. […] This finding was confirmed with an immunofluorescence assay to examine Rhodopsin protein expression in dissociated retinal cultures from P5 mice.
Retinas were dissected from postnatal day 5 (P5) mice and dissociated by treatment with 0.5% Trypsin diluted in calcium- and magnesium-free HBSS from 10 minutes at 37° C. Trypsin was inactivated by adding an equal volume of FBS and cells were pelleted by centrifugation at 4° C. and resuspended in media (Neurobasal-A containing 1% FBS, 1% N2, 1% B27, 1% Pen/Strep, and 0.5% L-glutamine). For qPCR, cells were plated into 24-well tissue culture plates at a density of 1 retina/well (see qPCR section below). […]

[1] = test system: S Opsin+ cells in the ventral retina; assay: S Opsin+ cell count in intact retinal explant cultures; assay type: cell-based; conditions: P11 mouse intact retina explants, 0.3 μM PR3, 3 DIV, vs DMSO
Description: Scale bar represents 50 μm. E. PR3-treated retinas had more S Opsin+ cells per 100 μm×100 μm field in the ventral retina compared to DMSO-treated retinas (n=3, *p<0.05, Student's t-test).
FIG. 1E is a graph quantifying the effects of PR3 on S-opsin expression; treatment conditions were the same as those in FIG. 1D. S-opsin+ cones are predominantly present in the ventral retina of mice.
Mutations in Nr2e3 result in an increased number of S Opsin+ photoreceptors as well as a reduction in rod gene expression. To determine if PR3 treatment also affects cone gene expression, intact retinas were explanted from P11 wild type mice in media containing DMSO or PR3 for 3 days. Intact retinas were used for this experiment to assess changes in dorsal and ventral retina independently. After fixation and whole mount immunostaining, S Opsin+ cells were counted in the ventral retina.
Intact retinas without RPE from P11 C57Bl/6 mice were explanted on 0.4 μm pore tissue culture inserts in media (Neurobasal-A containing 1% FBS, 1% N2, 1% B27, 1% Pen/Strep, and 0.5% L-Glutamine) containing DMSO or 0.3 μM Photoregulin3. Full media changes were performed every other day. […] Cells were counted from single plane confocal images taken at fixed settings.

With `COc1cc2nc(CN3CC=C(c4ccccc4)CC3)nc(O)c2cc1OC` [PR3] the Kd (Nr2e3) was roughly 67 µM, the Rhodopsin protein expression (Rhodopsin) was “reduced expression of Rhodopsin compared to DMSO vehicle and PR1” and the “S Opsin+ cells per 100 μm×100 μm field in the ventral retina” value [1] was “significantly more S Opsin+ cells per 100 μm×100 μm field in the ventral retina compared to DMSO-treated retinas; also recorded: increase in the number S Opsin+ cells in the ventral retina”.
